pEC50, pIC50: −log10 of the molar value. Structures can show the parent of a compound that is named as a salt.
System: IL-1β cytokine output from THP-1s
Experiment: THP-1 AlphaLISA IL-1β cytokine assay
Format: cell-based, human
Details: Homo sapiens, THP-1, PMA-differentiated THP-1 cells, LPS 24 hr then Nigericin 1 hour; read-out: IL-1β (IC50)
Summary of the method: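 PMA-differentiated (72 h) THP-1 cells pretreated 30 min with compound, LPS-stimulated 24 h, then nigericin 1 h at 37 °C. Supernatant IL-1β and IL-6 by AlphaLISA; % inhibition normalised to ±LPS controls, IC50 from concentration-response curves.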

SMILES | pIC50
C=C(CC(=O)OC1CCCCC1)C(=O)OCc1nnn[nH]1 [Example 125, 1-((2H-tetrazol-5-yl)methyl) 4-cyclohexyl 2-methylenesuccinate] | 4.77
C=C(CC(=O)OC1C(C)(C)CC1(C)C)C(=O)OCC(=O)O [Example 169, 2-((2-methylene-4-oxo-4-(2,2,4,4-tetramethylcyclobutoxy)butanoyl)oxy) acetic acid] | 4.81
C=C(CC(=O)O[C@@H](CC)CCCCC)C(=O)OCC(=O)O [Example 170, (S)-2-(2-methylene-4-(octan-3-yloxy)-4-oxobutanoyloxy)acetic acid] | 4.83
COC(=O)/C=C/C(=O)OC [dimethyl fumarate, reference compound] | 4.84
C=C(CC(=O)OC)C(=O)OC [dimethyl itaconate, reference compound] | < 4.00

Next, values leading:

pIC50 | SMILES
4.76 | C=C(CC(=O)O[C@@H](C)CCCCCC)C(=O)OCC(=O)O [Example 89, (S)-2-((2-methylene-4-(octan-2-yloxy)-4-oxobutanoyl)oxy)acetic acid]
4.79 | C=C(CC(=O)OC1CCCCCCC1)C(=O)OCC(=O)O [Example 90, 2-((4-(cyclooctyloxy)-2-methylene-4-oxobutanoyl)oxy)acetic acid]
4.32 | C=C(CC(=O)OC1CCCCC1)C(=O)OCC(=O)O [Example 91, 2-((4-(cyclohexyloxy)-2-methylene-4-oxobutanoyl)oxy)acetic acid]
5.28 | C=C(CC(=O)OCCCCCC)C(=O)OCC(=O)O [Example 94, 2-((4-(hexyloxy)-2-methylene-4-oxobutanoyl)oxy)acetic acid]
4.80 | C=C(CC(=O)OC1CC2(CCC2)C1)C(=O)OCC(=O)O [Example 96, 2-((2-methylene-4-oxo-4-(spiro[3.3]heptan-2-yloxy)butanoyl)oxy)acetic acid]
4.84 | C=C(CC(=O)O[C@H](C)CCCCCC)C(=O)OCC(=O)O [Example 112, (R)-2-((2-methylene-4-(octan-2-yloxy)-4-oxobutanoyl)oxy)acetic acid]
4.61 | C=C(CC(=O)O[C@H](CC)CCCCC)C(=O)OCC(=O)O [Example 178, (R)-2-(2-methylene-4-(octan-3-yloxy)-4-oxobutanoyloxy)acetic acid]
4.75 | C=C(CC(=O)OC(C)(C)CCCCC)C(=O)OCC(=O)O [Example 193, 2-((2-methylene-4-((2-methylheptan-2-yl)oxy)-4-oxobutanoyl)oxy)acetic acid]

Same assay, conditions: Homo sapiens, THP-1, Table 10; assay of Biological Example 1 (THP-1); read-out: IL-1β (IC50)

pIC50 | SMILES
4.84 | C=C(CC(=O)O[C@H](C)CCCCCC)C(=O)OCC(=O)O [Example 112, (R)-2-((2-methylene-4-(octan-2-yloxy)-4-oxobutanoyl)oxy)acetic acid]
4.84 | COC(=O)/C=C/C(=O)OC [dimethyl fumarate, reference compound]
< 4.00 | C=C(CC(=O)OC)C(=O)OC [dimethyl itaconate, reference compound]

System: NRF2
Experiment: NRF2 +/-GSH activation assay (DiscoverX PathHunter NRF2 translocation kit, U2OS cells)
Format: cell-based
Details: Homo sapiens, U2OS; Table 10; assay of Biological Example 5 (NRF2); read-out: EC50
Summary of the method: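 PathHunter U2OS cells, plated 24 hrs, measured NRF2 nuclear translocation by enzyme-fragment complementation luminescence after 6 hours compound exposure at 37 °C. For +GSH, compound was pre-incubated 30 minutes with GSH (6 mM working stock). EC50 from % activation normalised to dimethyl fumarate high control.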

pEC50 | SMILES
5.05 | C=C(CC(=O)O[C@H](C)CCCCCC)C(=O)OCC(=O)O [Example 112, (R)-2-((2-methylene-4-(octan-2-yloxy)-4-oxobutanoyl)oxy)acetic acid]
5.25 | COC(=O)/C=C/C(=O)OC [dimethyl fumarate, reference compound]
4.67 | C=C(CC(=O)OC)C(=O)OC [dimethyl itaconate, reference compound]

Same assay, conditions: Homo sapiens, U2OS; Table 10; assay of Biological Example 5 (NRF2); read-out: Emax

SMILES | Emax [%]
C=C(CC(=O)O[C@H](C)CCCCCC)C(=O)OCC(=O)O [Example 112, (R)-2-((2-methylene-4-(octan-2-yloxy)-4-oxobutanoyl)oxy)acetic acid] | 173
COC(=O)/C=C/C(=O)OC [dimethyl fumarate, reference compound] | 102
C=C(CC(=O)OC)C(=O)OC [dimethyl itaconate, reference compound] | 137

Same assay, conditions: Homo sapiens, U2OS; normalised to dimethyl fumarate 'High' control; GSH condition not stated in Table 5; read-out: NRF2 activation Emax

SMILES | Emax [%]
C=C(CC(=O)O[C@@H](C)CCCCCC)C(=O)OCC(=O)O [Example 89, (S)-2-((2-methylene-4-(octan-2-yloxy)-4-oxobutanoyl)oxy)acetic acid] | 238
C=C(CC(=O)OC1CCCCCCC1)C(=O)OCC(=O)O [Example 90, 2-((4-(cyclooctyloxy)-2-methylene-4-oxobutanoyl)oxy)acetic acid] | 157
C=C(CC(=O)OC1CCCCC1)C(=O)OCC(=O)O [Example 91, 2-((4-(cyclohexyloxy)-2-methylene-4-oxobutanoyl)oxy)acetic acid] | 73
C=C(CC(=O)OCCCCCC)C(=O)OCC(=O)O [Example 94, 2-((4-(hexyloxy)-2-methylene-4-oxobutanoyl)oxy)acetic acid] | 193
C=C(CC(=O)OC1CC2(CCC2)C1)C(=O)OCC(=O)O [Example 96, 2-((2-methylene-4-oxo-4-(spiro[3.3]heptan-2-yloxy)butanoyl)oxy)acetic acid] | 180
C=C(CC(=O)O[C@H](C)CCCCCC)C(=O)OCC(=O)O [Example 112, (R)-2-((2-methylene-4-(octan-2-yloxy)-4-oxobutanoyl)oxy)acetic acid] | 173
C=C(CC(=O)OC1CCCCC1)C(=O)OCc1nnn[nH]1 [Example 125, 1-((2H-tetrazol-5-yl)methyl) 4-cyclohexyl 2-methylenesuccinate] | 116
C=C(CC(=O)O[C@H](CC)CCCCC)C(=O)OCC(=O)O [Example 178, (R)-2-(2-methylene-4-(octan-3-yloxy)-4-oxobutanoyloxy)acetic acid] | 188
COC(=O)/C=C/C(=O)OC [dimethyl fumarate, reference compound] | 102
C=C(CC(=O)OC)C(=O)OC [dimethyl itaconate, reference compound] | 137

Same assay, conditions: Homo sapiens; U2OS PathHunter cells, 6 hours; GSH condition not stated in Table 5; read-out: NRF2 activation EC50

SMILES | pEC50
C=C(CC(=O)OC1CCCCC1)C(=O)OCc1nnn[nH]1 [Example 125, 1-((2H-tetrazol-5-yl)methyl) 4-cyclohexyl 2-methylenesuccinate] | 4.42
COC(=O)/C=C/C(=O)OC [dimethyl fumarate, reference compound] | 5.25
C=C(CC(=O)OC)C(=O)OC [dimethyl itaconate, reference compound] | 4.67

The next lines start with the values.

pEC50 | SMILES
4.65 | C=C(CC(=O)O[C@@H](C)CCCCCC)C(=O)OCC(=O)O [Example 89, (S)-2-((2-methylene-4-(octan-2-yloxy)-4-oxobutanoyl)oxy)acetic acid]
4.53 | C=C(CC(=O)OC1CCCCCCC1)C(=O)OCC(=O)O [Example 90, 2-((4-(cyclooctyloxy)-2-methylene-4-oxobutanoyl)oxy)acetic acid]
5.00 | C=C(CC(=O)OC1CCCCC1)C(=O)OCC(=O)O [Example 91, 2-((4-(cyclohexyloxy)-2-methylene-4-oxobutanoyl)oxy)acetic acid]
4.65 | C=C(CC(=O)OCCCCCC)C(=O)OCC(=O)O [Example 94, 2-((4-(hexyloxy)-2-methylene-4-oxobutanoyl)oxy)acetic acid]
4.67 | C=C(CC(=O)OC1CC2(CCC2)C1)C(=O)OCC(=O)O [Example 96, 2-((2-methylene-4-oxo-4-(spiro[3.3]heptan-2-yloxy)butanoyl)oxy)acetic acid]
5.05 | C=C(CC(=O)O[C@H](C)CCCCCC)C(=O)OCC(=O)O [Example 112, (R)-2-((2-methylene-4-(octan-2-yloxy)-4-oxobutanoyl)oxy)acetic acid]
4.84 | C=C(CC(=O)O[C@H](CC)CCCCC)C(=O)OCC(=O)O [Example 178, (R)-2-(2-methylene-4-(octan-3-yloxy)-4-oxobutanoyloxy)acetic acid]

System: not listed separately
Experiment: Hepatocyte stability assay (mouse)
Format: in vitro ADME
Details: cryopreserved hepatocytes, 10 μM compound, 0.5×10^6 cells/mL, 60 minutes, read-out: T½
Excerpt: (§1) Defrosted cryo-preserved hepatocytes (viability >70%) are used to determine the metabolic stability of a compound via calculation of intrinsic clearance (Clint; a measure of the removal of a compound from the liver in the absence of blood flow and cell binding). Clearance data are particularly important for in vitro work as they can be used in combination with in vivo data to predict the half-life and oral bioavailability of a drug.
(§2) The metabolic stability in hepatocytes assay involves a time-dependent reaction using both positive and negative controls. The cells must be pre-incubated at 37° C. then spiked with test compound (and positive control); samples taken at pre-determined time intervals are analysed to monitor the change in concentration of the initial drug compound over 60 minutes. A buffer incubation reaction (with no hepatocytes present) acts as a negative control and two cocktail solutions, containing compounds with known high and low clearance values (verapamil/7-hydroxycoumarin and propranolol/diltiazem), act as positive controls. • 1. The assay is run with a cell concentration of 0.5×10^6 cells/mL in Leibovitz buffer. • 2. All compounds and controls are run in duplicate. • 3. Compound concentration is 10 μM. • 4. All compounds and controls are incubated with both cells and buffer to show turnover is due to hepatic metabolism. • 5. All wells on the incubation plate will have 326.7 μL of either cells or buffer added. • 6. Prior to assay, cell and buffer-only incubation plates are preincubated for 10 mins at 37° C. • 7. The assay is initiated by adding compounds, 3.3 μL of 1 mM in 10% DMSO-90% Buffer; final DMSO concentration is 0.1%. • 8. Samples are taken at regular timepoints (0, 5, 10, 20, 40, 60 min) until 60 mins. • 9. Sample volume is 40 μL and it is added to 160 μL of crash solvent (acetonitrile with internal standard) and stored on ice. • 10. At the end of the assay, the crash plates are centrifuged at 3500 rpm for 20 mins at 4° C. • 11. 80 μL of clear supernatant is removed and mixed with 80 μL of deionised water before being analysed by LC-MS/MS.
(§3) Raw LC-MS/MS data are exported to, and analysed in, Microsoft Excel for determination of intrinsic clearance. The percentage remaining of a compound is monitored using the peak area of the initial concentration as 100%. Intrinsic clearance and half-life values are calculated using a graph of the natural log of percentage remaining versus the time of reaction in minutes. Half-life (min) and intrinsic clearance (Clint in μL min^−1 10^−6 cells) values are calculated using the gradient of the graph (the elimination rate constant, k) and Equations 1 and 2.

SMILES | half-life at 10 μM [min]
C=C(CC(=O)OC1CCCCC1)C(=O)OCc1nnn[nH]1 [Example 125, 1-((2H-tetrazol-5-yl)methyl) 4-cyclohexyl 2-methylenesuccinate] | 16
C=C(CC(=O)OC1C(C)(C)CC1(C)C)C(=O)OCC(=O)O [Example 169, 2-((2-methylene-4-oxo-4-(2,2,4,4-tetramethylcyclobutoxy)butanoyl)oxy) acetic acid] | 34
C=C(CC(=O)O[C@@H](CC)CCCCC)C(=O)OCC(=O)O [Example 170, (S)-2-(2-methylene-4-(octan-3-yloxy)-4-oxobutanoyloxy)acetic acid] | 20

Now from value to compound:

half-life at 10 μM [min] | SMILES
13 | C=C(CC(=O)O[C@@H](C)CCCCCC)C(=O)OCC(=O)O [Example 89, (S)-2-((2-methylene-4-(octan-2-yloxy)-4-oxobutanoyl)oxy)acetic acid]
30 | C=C(CC(=O)OC1CCCCCCC1)C(=O)OCC(=O)O [Example 90, 2-((4-(cyclooctyloxy)-2-methylene-4-oxobutanoyl)oxy)acetic acid]
48 | C=C(CC(=O)OC1CCCCC1)C(=O)OCC(=O)O [Example 91, 2-((4-(cyclohexyloxy)-2-methylene-4-oxobutanoyl)oxy)acetic acid]
23 | C=C(CC(=O)OCCCCCC)C(=O)OCC(=O)O [Example 94, 2-((4-(hexyloxy)-2-methylene-4-oxobutanoyl)oxy)acetic acid]
12 | C=C(CC(=O)OC1CC2(CCC2)C1)C(=O)OCC(=O)O [Example 96, 2-((2-methylene-4-oxo-4-(spiro[3.3]heptan-2-yloxy)butanoyl)oxy)acetic acid]
13 | C=C(CC(=O)O[C@H](C)CCCCCC)C(=O)OCC(=O)O [Example 112, (R)-2-((2-methylene-4-(octan-2-yloxy)-4-oxobutanoyl)oxy)acetic acid]
22 | C=C(CC(=O)OC(C)(C)CCCCC)C(=O)OCC(=O)O [Example 193, 2-((2-methylene-4-((2-methylheptan-2-yl)oxy)-4-oxobutanoyl)oxy)acetic acid]

System: hepatocytes
Experiment: Hepatocyte stability assay (mouse)
Format: in vitro ADME
Details: 10 μM compound, 0.5×10^6 cells/mL, 60 minutes
Excerpt: as §1, §2, §3

SMILES | CIint (μL min^−1 10^−6 cells)
C=C(CC(=O)OC1CCCCC1)C(=O)OCc1nnn[nH]1 [Example 125, 1-((2H-tetrazol-5-yl)methyl) 4-cyclohexyl 2-methylenesuccinate] | 101
C=C(CC(=O)OC1C(C)(C)CC1(C)C)C(=O)OCC(=O)O [Example 169, 2-((2-methylene-4-oxo-4-(2,2,4,4-tetramethylcyclobutoxy)butanoyl)oxy) acetic acid] | 38
C=C(CC(=O)O[C@@H](CC)CCCCC)C(=O)OCC(=O)O [Example 170, (S)-2-(2-methylene-4-(octan-3-yloxy)-4-oxobutanoyloxy)acetic acid] | 64

Results, then the compound that gave them:

CIint (μL min^−1 10^−6 cells) | SMILES
198 | C=C(CC(=O)O[C@@H](C)CCCCCC)C(=O)OCC(=O)O [Example 89, (S)-2-((2-methylene-4-(octan-2-yloxy)-4-oxobutanoyl)oxy)acetic acid]
47 | C=C(CC(=O)OC1CCCCCCC1)C(=O)OCC(=O)O [Example 90, 2-((4-(cyclooctyloxy)-2-methylene-4-oxobutanoyl)oxy)acetic acid]
29 | C=C(CC(=O)OC1CCCCC1)C(=O)OCC(=O)O [Example 91, 2-((4-(cyclohexyloxy)-2-methylene-4-oxobutanoyl)oxy)acetic acid]
60 | C=C(CC(=O)OCCCCCC)C(=O)OCC(=O)O [Example 94, 2-((4-(hexyloxy)-2-methylene-4-oxobutanoyl)oxy)acetic acid]
112 | C=C(CC(=O)OC1CC2(CCC2)C1)C(=O)OCC(=O)O [Example 96, 2-((2-methylene-4-oxo-4-(spiro[3.3]heptan-2-yloxy)butanoyl)oxy)acetic acid]
255 | C=C(CC(=O)O[C@H](C)CCCCCC)C(=O)OCC(=O)O [Example 112, (R)-2-((2-methylene-4-(octan-2-yloxy)-4-oxobutanoyl)oxy)acetic acid]
79 | C=C(CC(=O)OC(C)(C)CCCCC)C(=O)OCC(=O)O [Example 193, 2-((2-methylene-4-((2-methylheptan-2-yl)oxy)-4-oxobutanoyl)oxy)acetic acid]
